Source: publication PMC8611036, “An integrated method for optimized identification of effective natural inhibitors against SARS-CoV-2 3CLpro” (Scientific Reports, 2021)
Non-standard residues stand in square brackets, D forms with d. Residues, ends and D or L forms follow the SMILES beside them. 2Thi = N[C@@H](Cc1cccs1)C(=O)O; Cha = N[C@@H](CC1CCCCC1)C(=O)O

What was measured:
SARS-CoV-2 3CLpro = SARS-CoV-2 3CLpro (Severe acute respiratory syndrome coronavirus 2, UniProt P0DTD1); conditions: SARS-CoV pIC50 multiplied by similarity index (SI), training set compounds
SARS-CoV 3CLpro [1] = conditions: SARS-CoV 3CLpro inhibitors (training set), ref: per compound, cited from earlier work; for pIC50: from literature IC50; for IC50: literature values
SARS-CoV 3CLpro [2] = type: biochemical; conditions: activity class by pIC50 threshold 6

SMILES	SI*pIC50 (SARS-CoV-2 3CLpro)	pIC50 (SARS-CoV 3CLpro [1])	IC50 (SARS-CoV 3CLpro [1]) [µM]	Inact.(<6)/Act.(>=6) (SARS-CoV 3CLpro [2])
NC(=O)c1ccc2c(c1)C(=O)C(=O)N2c1cccc2ccccc12 [CMP118]	6.584	6.4318	0.37	Act. (Act.(>=6))
CC(C)C[C@H](NC(=O)[C@@H](NC(=O)OCc1ccccc1)C(C)C)C(=O)N[C@@H](C[C@@H]1CCNC1=O)C(=O)c1nccs1 [CMP183]	5.174	5.022	9.5	Inact. (Inact.(<6))
CC(=O)n1nc(SSc2ccccc2[N+](=O)[O-])nc1C [CMP120]	5.656	5.504	3.13	Inact. (Inact.(<6))
O=C1C=CC(=O)c2cn(Cc3ccccc3)cc21 [CMP111]	5.307	5.1549	7	Inact. (Inact.(<6))
O=C(Oc1cncc(Cl)c1)c1cc2ccccc2o1 [CMP169]	6.921	6.77	0.17	Act. (Act.(>=6))
C=CCSc1ccccc1NC(=O)/C=C/c1ccccc1 [CMP106]	4.857	4.706	19.7	Inact. (Inact.(<6))
CC1(C)CC(=O)c2c(NCc3ccco3)sc(C#N)c2C1 [CMP142]	4.948	4.796	16	Inact. (Inact.(<6))
Nc1nc(CSc2nnc(-c3cccc4ccccc34)n2-c2ccccc2)cs1 [CMP135]	4.386	4.234	58.3	Inact. (Inact.(<6))
O=C1C(=O)N(Cc2ccccc2)c2ccc(S(=O)(=O)N3CCOCC3)cc21 [CMP148]	5.01	4.858	13.9	Inact. (Inact.(<6))
Cc1oc(C(C)(C)C)cc1-c1cc(NS(=O)(=O)c2cccs2)[nH]n1 [CMP136]	5.152	5	10	Inact. (Inact.(<6))
COc1ccc(N2C(=O)NC(=O)/C(=C\c3cc(Cl)c(OCc4cccc(C(=O)O)c4)c(Cl)c3)C2=O)cc1 [CMP103]	5.315	5.164	6.86	Inact. (Inact.(<6))
O=C1C(=O)N(C/C=C/c2cc3ccccc3s2)c2ccc(I)cc21 [CMP98]	4.781			
CC(C)(C)NC(=O)C(c1cccnc1)N(C(=O)c1cccs1)c1ccc(C(C)(C)C)cc1 (stereo not shown) [CMP189]	4.453			Inact. (Inact.(<6))
O=C(Nc1ccc(Cl)cc1)c1ccc(CN2C(=O)C(=O)c3cc(I)ccc32)s1 [CMP99]	5.052			
Cc1cc(C)nc(SSc2ccccc2[N+](=O)[O-])n1 [CMP274]				Act. (Act.(>=6))
COC(=O)c1ccccc1SSc1nc(C(=O)OC)c(C)[nH]1 [CMP265]				Inact. (Inact.(<6))
CC(C)COC(=O)Nc1ccc(N(Cc2ccsc2)C(=O)Cn2nnc3ccccc32)cc1 [CMP199]				Inact. (Inact.(<6))
O=C(Oc1cncc(Cl)c1)c1ccncc1 [CMP167]				Act. (Act.(>=6))
CN1CCN(S(=O)(=O)c2ccc3c(c2)C(=O)C(=O)N3C)CC1 [CMP241]				Inact. (Inact.(<6))
CC(C)(C)NC(=O)C(c1cccnc1)N(C(=O)c1ccc(Cl)o1)c1ccc(C(C)(C)C)cc1 (stereo not shown) [CMP201]				Inact. (Inact.(<6))
CC(=O)N[C@@H](CO)C(=O)N[C@@H](C)C(=O)N[C@H](C(=O)N[C@@H](CC(C)C)C(=O)N[C@H](C=O)Cc1cccs1)C(C)C [CMP216] (Ac-SAVL[2Thi]-aldehyde)				Inact. (Inact.(<6))
CC(=O)Nc1ccc(N(C(=O)Cn2cc(-c3ccccc3)nn2)C(C(=O)NC(C)(C)C)c2ccsc2)cc1 (stereo not shown) [CMP210]				Inact. (Inact.(<6))
CC(C)(C)NC(=O)C(c1ccncc1)N(C(=O)c1ccco1)c1ccc(C(C)(C)C)cc1 (stereo not shown) [CMP205]				Inact. (Inact.(<6))
CC(=O)Oc1cc2c(cc1C(C)C)CC[C@H]1[C@](C)(CO)CCC[C@]21C [CMP207]				Inact. (Inact.(<6))
COC(=O)c1nc(SSc2ccc(Cl)cc2)[nH]c1C [CMP268]				Inact. (Inact.(<6))
O=C[C@H](Cc1cnc[nH]1)NC[C@H]1C[C@@H]2CCCC[C@H]2CN1C(=O)c1ccc(-c2ccccc2)cc1 [CMP257]				Inact. (Inact.(<6))
O=C(Nc1ccc(N(Cc2ccsc2)C(=O)Cn2nnc3ccccc32)cc1)C1CC1 [CMP195]				Inact. (Inact.(<6))

SMILES	SI*pIC50 (SARS-CoV-2 3CLpro)	pIC50 (SARS-CoV 3CLpro [1])	IC50 (SARS-CoV 3CLpro [1]) [µM]	Inact.(<6)/Act.(>=6) (SARS-CoV 3CLpro [2])
O=C1Nc2ccc(S(=O)(=O)N3CCN(Cc4cccc(Cl)c4)CC3)cc2C1=O [CMP235]				Inact. (Inact.(<6))
COc1ccc(-c2cc(=O)c3c(O)cc(O)cc3o2)cc1-c1c(O)cc(O)c2c(=O)cc(-c3ccc(O)cc3)oc12 [CMP157]				Inact. (Inact.(<6))
CC(C)(C)NC(=O)C(c1cccnc1)N(C(=O)C1=NC=NC1)c1ccc(C(C)(C)C)cc1 (stereo not shown) [CMP234]				Inact. (Inact.(<6))
COCCC(=O)Nc1ccc(N(C(=O)Cn2nnc3ccccc32)C(C)c2ccsc2)cc1 (stereo not shown) [CMP252]				Inact. (Inact.(<6))
Cc1ccc(C(=O)N/C(=C\c2ccc(-c3cccc([N+](=O)[O-])c3)o2)C(=O)NCCCN(C)C)cc1 [CMP283]				Inact. (Inact.(<6))
O=C1NN(c2ccc(Cl)c(Cl)c2)C(=O)/C1=C\c1ccc(-c2ccc(Br)cc2C(=O)O)o1 [CMP104]				Inact. (Inact.(<6))
Cc1csc(SSc2ccccc2[N+](=O)[O-])n1 [CMP267]				Inact. (Inact.(<6))
CN1C(=O)C(=O)c2cc(S(=O)(=O)N3CCN(c4ccccn4)CC3)ccc21 [CMP245]				Inact. (Inact.(<6))
CNc1ccc(N(Cc2ccsc2)C(=O)Cn2nnc3ccccc32)cc1 [CMP223]				Inact. (Inact.(<6))
CCC(=O)Nc1ccc(N(Cc2ccsc2)C(=O)Cn2nnc3ccccc32)cc1 [CMP220]				Inact. (Inact.(<6))
CC1CCCCN1S(=O)(=O)c1ccc2c(c1)C(=O)C(=O)N2 (stereo not shown) [CMP240]				Inact. (Inact.(<6))
CC(=O)Nc1cnc(SSc2ccccc2[N+](=O)[O-])s1 [CMP271]				Inact. (Inact.(<6))
O=C(Oc1cncc(Cl)c1)c1ccc(-c2ccc(Cl)cc2)o1 [CMP277]				Act. (Act.(>=6))
CC(=O)N[C@@H](CC(N)=O)C(=O)N[C@H](C(=O)N[C@@H](CC1CCCCC1)C(=O)N[C@H](C=O)Cc1c[nH]cn1)C(C)C [CMP217] (Ac-NV[Cha]H-aldehyde)				Inact. (Inact.(<6))
Cc1nnc(SSc2ccccc2[N+](=O)[O-])o1 [CMP273]				Inact. (Inact.(<6))
CC(=O)N[C@@H](CO)C(=O)N[C@@H](C)C(=O)N[C@H](C(=O)N[C@@H](CC(C)C)C(=O)N[C@H](C=O)Cc1ccccc1)C(C)C [CMP215] (Ac-SAVLF-aldehyde)				Inact. (Inact.(<6))
CN1CCN(S(=O)(=O)c2ccc3c(c2)C(=O)C(=O)N3)CC1 [CMP227]				Inact. (Inact.(<6))
CN1CCN(S(=O)(=O)c2ccc3c(c2)C(=O)C(=O)N3Cc2ccc3ccccc3c2)CC1 [CMP243]				Inact. (Inact.(<6))
CCOC(=O)c1ccccc1SSc1nc(C(=O)OC)c(C)[nH]1 [CMP264]				Inact. (Inact.(<6))
CC1CCN(S(=O)(=O)c2ccc3c(c2)C(=O)C(=O)N3Cc2ccccc2)CC1 [CMP248]				Inact. (Inact.(<6))
C=C(Cc1cccc(C)c1)C1=CC=C(c2ccc(C)cc2)C1 [CMP233]				Inact. (Inact.(<6))
O=C(Cn1nnc2ccccc21)N(Cc1ccsc1)c1ccc(-c2ccncc2)cc1 [CMP226]				Inact. (Inact.(<6))
O=C(Oc1cncc(Cl)c1)c1ccc(-c2ccccc2[N+](=O)[O-])o1 [CMP281]				Act. (Act.(>=6))
CC(C)(C)NC(=O)C(c1ccsc1)N(C(=O)Cn1nnc2ccccc21)c1ccc(NC(=O)C2CC2)cc1 (stereo not shown) [CMP191]				Inact. (Inact.(<6))
CC(C)C[C@H](NC(=O)[C@@H](NC(=O)[C@H](C)NC(=O)[C@H](CO)NC(=O)[C@@H](NC(=O)OCc1ccccc1)[C@@H](C)O)C(C)C)C(=O)N[C@H](C#N)CCC(N)=O [CMP231] (HELM PEPTIDE1{[O=C(OCc1ccccc1)[*:2]].T.S.A.V.L.[N#C[C@H](CCC(N)=O)N[*:1]]}$$$$V2.0)				Inact. (Inact.(<6))
O=[N+]([O-])c1ccccc1SSc1ncccn1 [CMP270]				Act. (Act.(>=6))
O=C(Oc1cncc(Cl)c1)c1cccnc1 [CMP172]				Act. (Act.(>=6))
